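These data come from cells grown in 96-well plates and exposed to compound for 48 hours at five concentrations. GI50: concentration for 50% inhibition of growth.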 The source made the active and inactive calls. No stated cut-off is given here; in the data, active = GI50 up to about 1.1 µM and inactive = higher.
Legend:
Experiment in all cases: NCI tumour cell line growth inhibition, 48 h
[1] = system: 786-0
[2] = system: A498
[3] = system: A549
[4] = system: ACHN
[5] = system: CAKI-1
[6] = system: CCRF-CEM
[7] = system: COLO 205
[8] = system: DU-145
[9] = system: EKVX
[10] = system: HCC 2998
[11] = system: HCT-116
[12] = system: HCT-15
[13] = system: HL-60
[14] = system: HOP-62
[15] = system: HOP-92
[16] = system: HT-29
[17] = system: Hs-578T
[18] = system: IGROV-1
[19] = system: K562
[20] = system: KM12
[21] = system: LOX IMVI
[22] = system: M14
[23] = system: MCF7
[24] = system: MDA-MB-231
[25] = system: MDA-MB-435
[26] = system: MDA-N
[27] = system: MOLT-4
[28] = system: Malme-3M
[29] = system: NCI-H226
[30] = system: NCI-H23
[31] = system: NCI-H460
[32] = system: NCI-H522
[33] = system: NCI/ADR-RES
[34] = system: OVCAR-3
[35] = system: OVCAR-4
[36] = system: OVCAR-5
[37] = system: OVCAR-8
[38] = system: PC-3
[39] = system: RPMI-8226
[40] = system: RXF 393
[41] = system: SF-268
[42] = system: SF-295
[43] = system: SF-539
[44] = system: SK-MEL-28
[45] = system: SK-MEL-5
[46] = system: SK-OV-3
[47] = system: SN12C
[48] = system: SNB-19
[49] = system: SNB-75
[50] = system: SR
[51] = system: SW-620
[52] = system: T47D
[53] = system: TK-10
[54] = system: U-251
[55] = system: UACC-257
[56] = system: UACC-62
[57] = system: UO-31
[58] = system: SK-MEL-2

CC1(C)C(O)c2ccccc2OC1N1CCN(C2Oc3ccccc3C(O)C2(C)C)CC1 (stereo unspecified)
GI50 [1]: > 100 µM (inactive) | GI50 [2]: 30 µM (inactive) | GI50 [3]: > 100 µM (inactive) | GI50 [4]: > 100 µM (inactive) | GI50 [5]: > 100 µM (inactive) | GI50 [6]: > 100 µM (inactive) | GI50 [7]: > 100 µM (inactive) | GI50 [8]: > 100 µM (inactive) | GI50 [9]: > 100 µM (inactive) | GI50 [10]: > 100 µM (inactive) | GI50 [11]: > 100 µM (inactive) | GI50 [12]: > 100 µM | GI50 [13]: > 100 µM (inactive) | GI50 [14]: > 100 µM (inactive) | GI50 [15]: > 100 µM (inactive) | GI50 [16]: > 100 µM (inactive) | GI50 [17]: > 100 µM (inactive) | GI50 [18]: > 100 µM (inactive) | GI50 [19]: > 100 µM (inactive) | GI50 [20]: > 100 µM (inactive) | GI50 [21]: > 100 µM (inactive) | GI50 [22]: > 100 µM (inactive) | GI50 [23]: > 100 µM (inactive) | GI50 [24]: > 100 µM (inactive) | GI50 [25]: > 100 µM (inactive) | GI50 [26]: > 100 µM (inactive) | GI50 [27]: > 100 µM (inactive) | GI50 [28]: > 100 µM (inactive) | GI50 [29]: > 100 µM (inactive) | GI50 [30]: > 100 µM (inactive) | GI50 [31]: > 100 µM (inactive) | GI50 [32]: > 100 µM (inactive) | GI50 [33]: > 100 µM (inactive) | GI50 [34]: > 100 µM (inactive) | GI50 [35]: > 100 µM (inactive) | GI50 [36]: > 100 µM (inactive) | GI50 [37]: > 100 µM (inactive) | GI50 [38]: > 100 µM (inactive) | GI50 [39]: > 100 µM (inactive) | GI50 [40]: > 100 µM (inactive) | GI50 [41]: > 100 µM (inactive) | GI50 [42]: > 100 µM (inactive) | GI50 [43]: > 100 µM (inactive) | GI50 [44]: > 100 µM (inactive) | GI50 [45]: > 100 µM (inactive) | GI50 [46]: > 100 µM (inactive) | GI50 [47]: > 100 µM (inactive) | GI50 [48]: > 100 µM (inactive) | GI50 [49]: > 100 µM (inactive) | GI50 [50]: > 100 µM (inactive) | GI50 [51]: > 100 µM (inactive) | GI50 [52]: > 100 µM (inactive) | GI50 [53]: > 10 µM (inactive) | GI50 [54]: > 100 µM (inactive) | GI50 [55]: > 100 µM (inactive) | GI50 [56]: > 100 µM (inactive) | GI50 [57]: > 100 µM (inactive)

S=C(/C=C1\SC(=N\c2ccccc2)/C(=N/c2ccccc2)N1c1ccccc1)Nc1ccccc1
GI50 [2]: > 100 µM (inactive) | GI50 [5]: > 100 µM (inactive) | GI50 [6]: 3.66 µM (inactive) | GI50 [7]: > 100 µM (inactive) | GI50 [8]: > 100 µM (inactive) | GI50 [11]: > 100 µM (inactive) | GI50 [12]: > 100 µM | GI50 [13]: > 100 µM (inactive) | GI50 [14]: > 100 µM (inactive) | GI50 [15]: > 100 µM (inactive) | GI50 [16]: > 100 µM (inactive) | GI50 [17]: > 100 µM (inactive) | GI50 [18]: > 100 µM (inactive) | GI50 [20]: > 100 µM (inactive) | GI50 [22]: > 100 µM (inactive) | GI50 [24]: > 100 µM (inactive) | GI50 [25]: > 100 µM (inactive) | GI50 [26]: > 100 µM (inactive) | GI50 [27]: 15.2 µM (inactive) | GI50 [28]: > 100 µM (inactive) | GI50 [30]: > 100 µM (inactive) | GI50 [31]: > 100 µM (inactive) | GI50 [32]: > 100 µM (inactive) | GI50 [33]: > 100 µM (inactive) | GI50 [34]: > 100 µM (inactive) | GI50 [37]: > 100 µM (inactive) | GI50 [38]: > 100 µM (inactive) | GI50 [39]: > 100 µM (inactive) | GI50 [42]: > 100 µM (inactive) | GI50 [44]: > 100 µM (inactive) | GI50 [58]: > 100 µM (inactive) | GI50 [45]: > 100 µM (inactive) | GI50 [46]: 67.3 µM (inactive) | GI50 [47]: > 100 µM (inactive) | GI50 [49]: > 100 µM (inactive) | GI50 [50]: > 100 µM (inactive) | GI50 [52]: > 100 µM (inactive) | GI50 [54]: > 100 µM (inactive) | GI50 [56]: 51.6 µM (inactive)

Source: ChEMBL document CHEMBL1201862, “PubChem BioAssay data set” (2004)
